The values that follow are results of earlier work, collected in patent publication US10925867B2, “Immunotherapeutic dosing regimens comprising pomalidomide and an anti-CS1 antibody for treating cancer” (Bristol-Myers Squibb Company, priority 2015, dated 2021).

Data set [1] relates to relapsed and refractory multiple myeloma. To be noted: MM-002, cited from earlier work.
Data set [2] concerns primary multiple myeloma cells. As to conditions: in the presence of peripheral lymphocytes; cited from earlier work.

For `Nc1cccc2c1C(=O)N(C1CCC(=O)NC1=O)C2=O` (racemic) [Pomalidomide, (RS)-4-amino-2-(2,6-dioxo-piperidin-3-yl)-isoindole-1,3-dione], in data set [1], the “Grade 3/4 anemia” value is on record as 24%, the “Grade 3/4 neutropenia” value is 48%, the “Grade 3/4 thrombocytopenia” value is 22% and the “ORR (≥PR)” value was 18%. Further, in data set [1], the fatigue is 11%, the “frequency of febrile neutropenia” value was 5%, the “incidence of DVT” value is reported as 3% and the “median OS” value is given as 13.6 months. For the same molecule, in data set [1], the median response duration is given as 10.7 months and the pneumonia is given as 15%. The “median PFS” value in data set [1] (pomalidomide 4 mg/day d1-21 of 28, dexamethasone 40 mg/week, median follow-up 14.2 months) was 2.7 months.

Consider “Elotuzumab: humanized monoclonal IgG1 antibody directed against CS-1; VL SEQ ID NO:1, VH SEQ ID NO:2”, for which the ADCC result in data set [2] is recorded as “induces significant antibody-dependent cellular cytotoxicity (ADCC)”.
